Results: publication PMC8022201, “Non‐canonical metabolic pathways in the malaria parasite detected by isotope‐tracing metabolomics” (Molecular Systems Biology, 2021)

Target: T1, HAD4 (PfHAD4) (Plasmodium falciparum, UniProt Q8III4)
T1 construct: gene PF3D7_1118400
Assay: biochemical

T1 sequence (Q8III4 1-306): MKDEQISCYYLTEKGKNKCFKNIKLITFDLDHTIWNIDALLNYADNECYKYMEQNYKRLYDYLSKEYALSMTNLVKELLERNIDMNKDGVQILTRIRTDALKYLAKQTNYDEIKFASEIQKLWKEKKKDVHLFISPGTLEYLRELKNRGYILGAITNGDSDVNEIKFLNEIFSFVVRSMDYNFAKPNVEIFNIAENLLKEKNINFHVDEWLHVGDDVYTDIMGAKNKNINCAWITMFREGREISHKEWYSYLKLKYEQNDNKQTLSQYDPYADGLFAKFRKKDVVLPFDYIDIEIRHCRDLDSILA

SMILES: O=P(O)(O)O [inorganic phosphate]
- IC50: 2100 ± 210 µM
